Where “and” joins values, the source holds several entries; their conditions need not be identical. Equal entries are not always repeated. Where two headings read alike, the source gives them in different places.
Columns and labels:
AhR = target: T1, AhR (Homo sapiens, UniProt P35869); assay: Reporter gene assay in AZ-AHR cells, agonist analyses (luciferase)
T1 sequence (P35869 11-848): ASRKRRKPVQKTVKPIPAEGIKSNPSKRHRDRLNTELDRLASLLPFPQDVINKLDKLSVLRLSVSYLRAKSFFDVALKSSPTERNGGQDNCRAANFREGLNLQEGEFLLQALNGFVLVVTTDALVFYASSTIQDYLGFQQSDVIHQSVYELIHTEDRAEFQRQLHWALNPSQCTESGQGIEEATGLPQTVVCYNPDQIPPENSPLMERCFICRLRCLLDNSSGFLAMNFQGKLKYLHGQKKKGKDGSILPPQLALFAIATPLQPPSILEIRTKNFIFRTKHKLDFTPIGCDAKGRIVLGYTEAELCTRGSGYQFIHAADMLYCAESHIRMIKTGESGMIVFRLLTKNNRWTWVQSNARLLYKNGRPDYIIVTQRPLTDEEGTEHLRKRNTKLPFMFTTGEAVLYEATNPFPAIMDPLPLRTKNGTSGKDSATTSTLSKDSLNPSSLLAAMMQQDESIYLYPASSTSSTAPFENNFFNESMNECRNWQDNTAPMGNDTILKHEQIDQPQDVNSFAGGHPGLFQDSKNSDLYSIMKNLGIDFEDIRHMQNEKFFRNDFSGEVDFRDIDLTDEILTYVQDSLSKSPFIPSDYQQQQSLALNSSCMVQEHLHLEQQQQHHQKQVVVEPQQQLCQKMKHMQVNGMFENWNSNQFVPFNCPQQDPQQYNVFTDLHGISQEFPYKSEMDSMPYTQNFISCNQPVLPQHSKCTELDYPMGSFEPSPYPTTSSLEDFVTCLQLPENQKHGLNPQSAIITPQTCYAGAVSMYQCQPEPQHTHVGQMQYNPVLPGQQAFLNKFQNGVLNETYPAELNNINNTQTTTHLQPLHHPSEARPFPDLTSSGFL
Protocol: In the first series of experiments, we evaluated the agonistic and antagonistic effects of MICT on the AhR activation. […] The antagonistic effects of MICT were evaluated against typical full agonists of the AhR, comprising TCDD, BaP, and FICZ, which were applied at fixed concentrations corresponding to their EC80.
Following the treatments, we lysed cells, and luciferase activity was measured. Experiments were performed at least in four consecutive cell passages. Incubations were performed in quadruplicates (technical replicates). In agonist analyses, the data from a representative experiment, expressed as a fold induction of luciferase activity over control cells, are shown. In antagonist analyses, the data are a percentage of maximal induction, and they are the mean ± SD.
Then, cells were lysed, and luciferase activity was measured using the Tecan Infinite M200 plate luminometer (Schoeller Instruments, Czech Republic). The experiments were performed in at least four consecutive cell passages, and the treatments were in quadruplicates (technical replicates). The values of half-maximal effective concentration (EC50) for each MICT, and half-maximal inhibitory concentration (IC50—where appropriate) were calculated.
Supplementary Figure 2. Tryptophan effects in culture medium on AhR activity. (A) Time-course of Trp
levels in culture media from hepatic (AZ-AHR), instestinal (LS174T) and skin (HaCaT) cells. Determined by
HPLC. (B) Induction of AhR-dependent luciferase activity in AZ-AHR cells incubated for 24 h with TCDD,
Indole and Trp in Trp/serum-free culture medium. (C) Induction of AhR-dependent luciferase activity in
AZ-AHR cells incubated for 24 h with TCDD and Indole in standard (+Trp/+FBS), serum-free (+Trp/-FBS),
Trp-free (-Trp/+FBS) and Trp/serum-free (-Trp/-FBS) culture medium. […]

CYP1A1 mRNA = CYP1A1 mRNA (qRT-PCR) in wild-type and AhR-knockout HT-29 cells; format: cell-based, human
Protocol: Figure 4 Effects of MICT on the induction of CYP1A1 mRNA in human hepatic and intestinal cells. Cultured cells were incubated for 24 h with the vehicle (DMSO; 0.1% v/v) and tested MICT in the presence or absence of TCDD (10 nM). RT-PCR determined the level of CYP1A1 mRNA, and the data were normalized per GAPDH mRNA level. […] (A,B) Experiments in three consecutive passages of human colon adenocarcinoma cell line LS180 in the absence (A) and the presence (B) of 10 nM TCDD. The bar graphs show the percentage of maximal induction attained by TCDD and are expressed as the mean ± SD. (C) Experiments in three consecutive passages of wild-type (AhR^+/^+) and AhR-knockout (AhR^−/^−) HT-29 cells. […] (D) Primary human hepatocytes from three different donors (LH79, Hep2201020, and Hep2201021).
CRISPR/Cas9 knockout of the AhR in HT-29 cells: A CRISPR/Cas9 expression vector with GFP, pSpCas9(BB)-2A-GFP (PX458) (#48138; Addgene, Cambridge, MA, USA) was used for integration of the gRNA complementary to exon 2 of the AHR gene. 4 × 10^5 cells were seeded in a 6-well plate and transfected (at 60–70% confluence) with a mixture of vector DNA and Lipofectamine™ 3000 (Life Technologies) according to the manufacturer’s instructions. The transfected cells positive for GFP signal were sorted using BD Aria II Sorp (Becton Dickinson, Franklin Lakes, NJ, USA), in a single cell suspension into a 96-well plate. DNA isolation was performed by a QIAamp DNA Mini Kit (Qiagen, Hilden, Germany) according to the manufacturer’s instructions. The function of the CRISPR/Cas9 system was verified by the SURVEYOR mutation detection kit (Integrated DNA Technologies, Leuven, Belgium) according to the manufacturer’s instructions. The positive clones were checked for AhR expression by Western Blotting. PCR amplification products were purified using the QIAquick PCR Purification Kit (Qiagen) and integrated into a plasmid vector (pGEM_T Easy Vector Systems, Promega), and E.coli DHP α (MAX Efficiency DH5a Competent Cells, Thermo Fisher; Waltham, MA, USA) were transformed according to manufacturer’s instructions, DNA was isolated, and deletions in the AhR gene sequences were verified by sequencing (Mix2seq, Eurofins Genomic, Luxembourg).
Total RNA was isolated using TRI Reagent® (Sigma Aldrich, Prague, Czech Republic). cDNA was synthesized using M-MuLV reverse transcriptase (New England Biolabs, Ipswich, MA, USA). The reverse transcription was performed at 42 °C for 60 min using Random Primers 6 (New England Biolabs, Ipswich, MA, USA) and diluted in a 1:4 ratio by PCR-grade water. The quantitative reverse transcriptase-polymerase chain reaction (qRT-PCR) was performed on the Lightcycler 480 II using the LightCycler ® 480 Probes Master (Roche Diagnostic Corporation, Prague, Czech Republic). The levels of CYP1A1 and GAPDH mRNAs were determined using the Universal Probe Library probes (UPL; Roche Diagnostic Corporation, Prague, Czech Republic) in combination with specific primers, using a protocol described elsewhere. All measurements were performed in triplicates, and the gene expression was normalized to glyceraldehyde-3-phosphate dehydrogenase (GAPDH) as a house-keeping gene. The data were processed using the delta-delta Ct method and expressed as a fold induction over the negative control (DMSO) or as a percentage of the positive control (maximal induction by TCDD).

[1] = EC50, AZ-AHR cells, 24 h, agonist analyses
[2] = colon HT-29 cells, wild-type, 24 h
[3] = read-out: fold induction of luciferase activity (efficacy)

SMILES | EC50 (AhR; [1]) | Efficacy (EMAX) (AhR; Table 1 summary class) | Potency (EC50) (AhR; Table 1 summary class) | induction of CYP1A1 mRNA (CYP1A1 mRNA; [2]) | other results
Cc1c[nH]c2ccccc12 [3MI, skatole] | 103 ± 1.78 µM | medium | low | weaker inducers | –
O=Cc1c[nH]c2ccccc12 [IA, indole-3-aldehyde] | 62.2 µM and 62 µM | low | low | – | –
O=C(O)/C=C/c1c[nH]c2ccccc12 [IAC, indole-3-acrylate] | 42.3 ± 3.32 µM | medium | low | strong induction | fold induction at 100 µM (AhR; [3]): 40 to 100
NC(=O)Cc1c[nH]c2ccccc12 [IAD, indole-3-acetamide] | 99.9 ± 2.86 µM | high | low | strong induction | –
OCCc1c[nH]c2ccccc12 [IET, indole-3-ethanol] | 98 ± 6.41 µM | medium | low | – | –
O=C(O)C(O)Cc1c[nH]c2ccccc12 (centres unmarked) [ILA, indole-3-lactate] | 82 ± 17.1 µM | low | – | – | Potency (EC50) (AhR): low
c1ccc2[nH]ccc2c1 [IND, indole] | – | – | – | – | Efficacy (EMAX) (AhR): high; Potency (EC50) (AhR): very low; induced luciferase activity (AhR): 500 fold; EC50 (AhR; EC50): ~1500 µM and 1480 µM; fold induction at 10000 µM (AhR; [3]): 200 to 600; induction of CYP1A1 mRNA (CYP1A1 mRNA): weaker inducers
O=C(O)C(=O)Cc1c[nH]c2ccccc12 [IPY, indole-3-pyruvate] | 98.5 ± 10.1 µM | high | low | strong induction | –
NCCc1c[nH]c2ccccc12 [TA, tryptamine] | 83.1 ± 12.7 µM | medium | low | weaker inducers | –
Clc1cc2c(cc1Cl)Oc1cc(Cl)c(Cl)cc1O2 [TCDD, 2,3,7,8-tetrachlorodibenzo-p-dioxin, reference compound] | – | – | – | – | induced luciferase activity (AhR; AZ-AHR cells, 24 h, Trp-free/serum-free medium): 10000 fold; CYP1A1 induction (CYP1A1 mRNA; AhR knock-out HT-29 variant, 24 h): nullified

Source: PMC7177849, “Gut Microbial Catabolites of Tryptophan Are Ligands and Agonists of the Aryl Hydrocarbon Receptor: A Detailed Characterization” (International Journal of Molecular Sciences, 2020)
